The source made the active and inactive calls. The calls are words filed in the database; no cut-off is given here.
Tests used:
[1] = test system: NCI-H292; experiment: Cytotoxicity against human NCI-H292 cells after 72 hrs by MTT assay; type: functional, cell-based; conditions: NCI-H292, 72 h
[2] = Cytotoxicity against human MDA468 cells after 72 hrs by MTT assay; type: functional, cell-based; conditions: MDA-MB-468, 72 h
[3] = test system: HT-29; experiment: Cytotoxicity against human HT-29 cells after 72 hrs by MTT assay; type: functional, cell-based; conditions: HT-29, 72 h
[4] = target: T1, Tubulin (Bos taurus) (UniProt Q6B856+Q862L2+Q862F3); experiment: Stabilization of bovine tubulin polymerization at 10 uM after 20 mins by spectrophotometer analysis; type: protein assay
[5] = target: T1, Tubulin (Bos taurus); experiment: Induction of bovine tubulin polymerization at 5 uM after 20 mins by spectrophotometer analysis; type: protein assay
[6] = Cytotoxicity against human PC3 cells after 72 hrs by MTT assay; type: functional, cell-based; conditions: PC-3, 72 h

**Q.** With Cc1c(CC(=O)NCCN(C)C)c2cc(NC(=O)OC(C)(C)C)ccc2n1S(=O)(=O)c1ccccc1 as the molecule, how does the IC50 [1] read?
**A.** 25.9 µM

**Q.** For Cc1c(CC(=O)NCCN(C)C)c2cc(NC(=O)c3cccc(OCc4ccccc4)c3)ccc2n1S(=O)(=O)c1ccccc1, which IC50 [1] is on record?
**A.** 19.3 µM

**Q.** With Cc1c(CC(=O)NCCN(C)C)c2cc(NC(=O)c3cccc(OCc4ccccc4)c3)ccc2n1C(=O)c1ccc(Br)cc1 as the molecule, how does the IC50 [1] read?
**A.** 1.73 µM

**Q.** What about the IC50 [2] of the same molecule?
**A.** 2.37 µM

**Q.** What about the IC50 [3] of the same molecule?
**A.** 1.48 µM

**Q.** And the Activity [4]?
**A.** Active

**Q.** What about the Activity [5] of the same molecule?
**A.** Active

**Q.** What about the IC50 [6] of the same molecule?
**A.** 8.8 µM

**Q.** Which IC50 [1] does the source give for CCCC(=O)Nc1ccc2c(c1)c(CC(=O)NCCN(C)C)c(C)n2S(=O)(=O)c1ccccc1 here?
**A.** 33.5 µM

**Q.** For CCC(=O)Nc1ccc2c(c1)c(CC(=O)NCCN(C)C)c(C)n2S(=O)(=O)c1ccccc1, which IC50 [1] is on record?
**A.** 38.5 µM

**Q.** For Cc1c(CC(=O)NCCN(C)C)c2cc(NC(=O)c3ccc(Br)cc3)ccc2n1S(=O)(=O)c1ccccc1, which IC50 [1] is on record?
**A.** 55.5 µM

**Q.** With Cc1c(CC(=O)NCCN(C)C)c2cc(NC(=O)OC(C)(C)C)ccc2n1C(=O)c1ccc(Br)cc1 as the molecule, how does the IC50 [1] read?
**A.** 14.9 µM

**Q.** With CCCC(=O)Nc1ccc2c(c1)c(CC(=O)NCCN(C)C)c(C)n2C(=O)c1ccc(Br)cc1 as the molecule, how does the IC50 [1] read?
**A.** 39.6 µM

**Q.** For COc1ccc(C(=O)Nc2ccc3c(c2)c(CC(=O)NCCN(C)C)c(C)n3C(=O)c2ccc(Br)cc2)cc1, which IC50 [1] is on record?
**A.** 13.9 µM

**Q.** And the IC50 [2]?
**A.** 8.16 µM

**Q.** And the IC50 [3]?
**A.** 7.19 µM

**Q.** What about the IC50 [6] of the same molecule?
**A.** 10.2 µM

**Q.** Which IC50 [1] does the source give for Cc1c(CC(=O)NCCN(C)C)c2cc(NC(=O)c3ccc(C#N)cc3)ccc2n1C(=O)c1ccc(Br)cc1 here?
**A.** 20.8 µM

**Q.** For CC(=O)Nc1ccc2c(c1)c(CC(=O)NCCN(C)C)c(C)n2C(=O)c1ccc(Br)cc1, which IC50 [1] is on record?
**A.** 67.6 µM

**Q.** With CC(=O)Nc1ccc2c(c1)c(CC(=O)NCCN(C)C)c(C)n2S(=O)(=O)c1ccccc1 as the molecule, how does the IC50 [1] read?
**A.** 113 µM

**Q.** Which results are given for Cc1c(CC(=O)NCCN(C)C)c2cc(NC(=O)c3ccccc3)ccc2n1C(=O)c1ccc(Br)cc1?
**A.** IC50 [1]: 13.4 µM; IC50 [2]: 7.67 µM; IC50 [3]: 6.72 µM; IC50 [6]: 13.2 µM

**Q.** For Cc1c(CC(=O)NCCN(C)C)c2cc(N)ccc2n1C(=O)c1ccc(Br)cc1, which IC50 [1] is on record?
**A.** 31.5 µM

**Q.** For CCC(=O)Nc1ccc2c(c1)c(CC(=O)NCCN(C)C)c(C)n2C(=O)c1ccc(Br)cc1, which IC50 [1] is on record?
**A.** 21.8 µM

**Q.** Which IC50 [1] does the source give for Cc1c(CC(=O)NCCN(C)C)c2cc(NC(=O)C(C)C)ccc2n1S(=O)(=O)c1ccccc1 here?
**A.** 30.9 µM

**Q.** Which IC50 [1] does the source give for Cc1c(CC(=O)NCCN(C)C)c2cc(N)ccc2n1S(=O)(=O)c1ccccc1 here?
**A.** 64.2 µM

**Q.** Which IC50 [1] does the source give for CC(=O)O[C@H]1C(=O)[C@@]2(C)[C@H]([C@H](OC(=O)c3ccccc3)[C@]3(O)C[C@H](OC(=O)[C@H](O)[C@@H](NC(=O)c4ccccc4)c4ccccc4)C(C)=C1C3(C)C)[C@]1(OC(C)=O)CO[C@@H]1C[C@@H]2O [PACLITAXEL] here?
**A.** 0.006 µM

**Q.** What about the Activity [4] of the same molecule?
**A.** Active

— ChEMBL document CHEMBL3745689, “Indomethacin derivatives as tubulin stabilizers to inhibit cancer cell proliferation” (Bioorg Med Chem, 2016)
